The experiment relates to ER-alpha MCF7. The experiment is described as follows: ER-alpha MCF7 HCS EC50; stated as measured by in vitro cell proliferation assays of Examples 902 and 903. Format: cell-based. The conditions noted are these: Homo sapiens, MCF7, MCF7 cells; Table 2. An outline of the steps: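 MCF7 cells seeded 1000-2000 cells/well for 16 h, then treated with nine-point 1:2 DMSO dilution series in quadruplicate at 37 °C, 5% CO2 for 4 days. Viable cells quantified by CellTiter-Glo ATP luminescence; EC50 calculated. Controls: fulvestrant at final 100 nM, DMSO 0.2% v/v.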
The term EC50 denotes the concentration giving half of the maximal effect. Regarding `C[C@H](CN1[C@H](c2c(F)cc(OCCN3CC(CF)C3)cc2F)c2[nH]c3ccccc3c2C[C@H]1C)c1ccccc1` [Example 199, (1R,3R)-1-(2,6-difluoro-4-(2-(3-(fluoromethyl)azetidin-1-yl)ethoxy)phenyl)-3-methyl-2-((S)-2-phenylpropyl)-2,3,4,9-tetrahydro-1H-pyrido[3,4-b]indole], the EC50 amounted to 2.32 nM.

With `C[C@@H]1Cc2c([nH]c3ccccc23)[C@@H](c2cc(F)c(OC3CN(CCCF)C3)cc2F)N1CC(C)(C)F` [Example 339, (1R,3R)-1-[2,5-difluoro-4-[1-(3-fluoropropyl)azetidin-3-yl]oxy-phenyl]-2-(2-fluoro-2-methyl-propyl)-3-methyl-1,3,4,9-tetrahydropyrido[3,4-b]indole], the EC50 is 1 nM.

Regarding `C[C@@H]1Cc2c([nH]c3ccccc23)[C@@H](c2c(F)cc(OCCN3CC(CF)C3)cc2F)N1C(=O)CC1CC1` [Example 157, 2-cyclopropyl-1-[(1R,3R)-1-[2,6-difluoro-4-[2-[3-(fluoromethyl)azetidin-1-yl]ethoxy]phenyl]-3-methyl-1,3,4,9-tetrahydropyrido[3,4-b]indol-2-yl]ethanone], the EC50 was 5 nM.

As for `C[C@@H]1Cc2c([nH]c3ccccc23)[C@@H](c2cnn(CC3CN(CCCF)C3)c2)N1CC(C)(C)F` [Example 429, (1R,3R)-2-(2-fluoro-2-methylpropyl)-1-(1-((1-(3-fluoropropyl)azetidin-3-yl)methyl)-1H-pyrazol-4-yl)-3-methyl-2,3,4,9-tetrahydro-1H-pyrido[3,4-b]indole], the EC50 amounted to 0.99 nM.

With `C[C@@H]1Cc2c([nH]c3ccc(F)cc23)[C@@H](c2c(F)cc(OCCN3CC(CF)C3)cc2F)N1CC(F)F` [Example 383, (1R,3R)-1-(2,6-difluoro-4-(2-(3-(fluoromethyl)azetidin-1-yl)ethoxy)phenyl)-2-(2,2-difluoroethyl)-6-fluoro-3-methyl-2,3,4,9-tetrahydro-1H-pyrido[3,4-b]indole], the EC50 was 0.28 nM.

As for `C[C@@H]1Cc2c([nH]c3cc(F)ccc23)[C@@H](c2c(F)cc(NC3CN(CCCF)C3)cc2F)N1C[C@](C)(F)CO` [Example 414, (S)-3-((1R,3R)-1-(2,6-difluoro-4-((1-(3-fluoropropyl)azetidin-3-yl)amino)phenyl)-7-fluoro-3-methyl-3,4-dihydro-1H-pyrido[3,4-b]indol-2(9H)-yl)-2-fluoro-2-methylpropan-1-ol], the 50% effective concentration (EC50) is 0.12 nM.

Turning to `C[C@H]1Cc2c([nH]c3cccc(F)c23)[C@H](c2c(F)cc(NC3CN(CCCF)C3)cc2F)N1C[C@](C)(F)CO` [Example 401, (S)-3-((1S,3S)-1-(2,6-difluoro-4-((1-(3-fluoropropyl)azetidin-3-yl)amino)phenyl)-5-fluoro-3-methyl-3,4-dihydro-1H-pyrido[3,4-b]indol-2(9H)-yl)-2-fluoro-2-methylpropan-1-ol], the EC50 was determined as 2.4 nM.

`C[C@H]1Cc2c([nH]c3cc(F)ccc23)[C@H](c2c(F)cc(NC3CN(CCCF)C3)cc2F)N1CC(F)(F)F` [Example 397, N-(3,5-difluoro-4-((1S,3S)-7-fluoro-3-methyl-2-(2,2,2-trifluoroethyl)-2,3,4,9-tetrahydro-1H-pyrido[3,4-b]indol-1-yl)phenyl)-1-(3-fluoropropyl)azetidin-3-amine]: the EC50 stood at 33 nM.

For the molecule `C[C@@H]1Cc2c([nH]c3ccccc23)[C@@H](c2c(F)cc(OCCN3CC(CF)C3)cc2F)N1C1CCC1` [Example 134, (1R,3R)-2-cyclobutyl-1-[2,6-difluoro-4-[2-[3-(fluoromethyl)azetidin-1-yl]ethoxy]phenyl]-3-methyl-1,3,4,9-tetrahydropyrido[3,4-b]indole], the EC50 came out at 0.542 nM.

Take `C[C@@H]1Cc2c([nH]c3ccccc23)[C@@H](c2c(F)cc(OCCN3CC(CF)C3)cc2F)N1C(=O)C1CNC1` [Example 182, azetidin-3-yl-[(1R,3R)-1-[2,6-difluoro-4-[2-[3-(fluoromethyl)azetidin-1-yl]ethoxy]phenyl]-3-methyl-1,3,4,9-tetrahydropyrido[3,4-b]indol-2-yl] methanone]: the EC50 is above 100 nM.

Values taken from patent US20250114338A1, “TETRAHYDRO-PYRIDO[3,4-b]INDOLE ESTROGEN RECEPTOR MODULATORS AND USES THEREOF” (Genentech, Inc., priority 2014, published 2025).
